Reference: US7101906B2, “2,3,4-substituted cyclopentanones as therapeutic agents” (Allergan, Inc., priority 2004, dated 2006)

How the values were obtained:
[1] = molecular target: T1, hEP1 (Homo sapiens, UniProt P34995); test: FLIPR calcium signal, hEP1; type: cell-based; details: HEK-293(EBNA) cells, read-out: Functional EC50 (nM) HEP1
T1 construct: expressed in transfected cells
T1 sequence (P34995 1-402): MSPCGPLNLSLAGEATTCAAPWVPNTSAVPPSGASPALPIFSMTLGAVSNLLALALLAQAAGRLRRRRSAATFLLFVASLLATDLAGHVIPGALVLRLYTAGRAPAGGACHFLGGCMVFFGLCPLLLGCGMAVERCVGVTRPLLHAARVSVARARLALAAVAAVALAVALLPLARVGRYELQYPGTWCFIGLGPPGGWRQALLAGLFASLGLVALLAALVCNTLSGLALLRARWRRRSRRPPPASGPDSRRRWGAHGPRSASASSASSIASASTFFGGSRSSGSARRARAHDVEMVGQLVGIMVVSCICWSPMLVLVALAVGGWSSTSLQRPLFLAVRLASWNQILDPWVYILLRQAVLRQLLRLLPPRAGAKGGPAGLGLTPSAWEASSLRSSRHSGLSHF
Experimental: (§1) HEK-293(EBNA) cells, stably expressing one type or subtype of recombinant human prostaglandin receptors (prostaglandin receptors expressed: hDP/Gqs5; hEP1; hEP2/Gqs5; hEP3A/Gqi5; hEP4/Gqs5; hFP; hIP; hTP), were cultured in 100 mm culture dishes in high-glucose DMEM medium containing 10% fetal bovine serum, 2 mM 1-glutamine, 250 μg/ml geneticin (G418) and 200 μg/ml hygromycin B as selection markers, and 100 units/ml penicillin G, 100 μg/ml streptomycin and 0.25 μg/ml amphotericin B.
(§2) Cells were seeded at a density of 5×10^4 cells per well in Biocoat® Poly-D-lysine-coated black-wall, clear-bottom 96-well plates (Becton-Dickinson) and allowed to attach overnight in an incubator at 37° C. Cells were then washed two times with HBSS-HEPES buffer (Hanks Balanced Salt Solution without bicarbonate and phenol red, 20 mM HEPES, pH 7.4) using a Denley Cellwash plate washer (Labsystems). After 45 minutes of dye-loading in the dark, using the calcium-sensitive dye Fluo-4 AM at a final concentration of 2 μM, plates were washed four times with HBSS-HEPES buffer to remove excess dye leaving 100 μl in each well. Plates were re-equilibrated to 37° C. for a few minutes.
(§3) Cells were excited with an Argon laser at 488 nm, and emission was measured through a 510–570 nm bandwidth emission filter (FLIPR™, Molecular Devices, Sunnyvale, Calif.). Drug solution was added in a 50 μl volume to each well to give the desired final concentration. The peak increase in fluorescence intensity was recorded for each well. On each plate, four wells each served as negative (HBSS-HEPES buffer) and positive controls (standard agonists: BW245C (hDP); PGE2 (hEP1; hEP2/Gqs5; hEP3A/Gqi5; hEP4/Gqs5); PGF2α (hFP); carbacyclin (hIP); U-46619 (hTP), depending on receptor). The peak fluorescence change in each drug-containing well was then expressed relative to the controls.
(§4) Compounds were tested in a high-throughput (HTS) or concentration-response (CoRe) format. In the HTS format, forty-four compounds per plate were examined in duplicates at a concentration of 10^−5 M. To generate concentration-response curves, four compounds per plate were tested in duplicates in a concentration range between 10^−5 and 10^−11 M. The duplicate values were averaged. In either, HTS or CoRe format each compound was tested on at least 3 separate plates using cells from different passages to give an n≧3.

[2] = molecular target: T2, hEP4/Gqs5 (Homo sapiens, UniProt P35408); test: FLIPR calcium signal, hEP4/Gqs5; type: cell-based; details: HEK-293(EBNA) cells, read-out: Functional EC50 (nM) HEP4
T2 construct: expressed in transfected cells
T2 sequence (P35408 whole entry): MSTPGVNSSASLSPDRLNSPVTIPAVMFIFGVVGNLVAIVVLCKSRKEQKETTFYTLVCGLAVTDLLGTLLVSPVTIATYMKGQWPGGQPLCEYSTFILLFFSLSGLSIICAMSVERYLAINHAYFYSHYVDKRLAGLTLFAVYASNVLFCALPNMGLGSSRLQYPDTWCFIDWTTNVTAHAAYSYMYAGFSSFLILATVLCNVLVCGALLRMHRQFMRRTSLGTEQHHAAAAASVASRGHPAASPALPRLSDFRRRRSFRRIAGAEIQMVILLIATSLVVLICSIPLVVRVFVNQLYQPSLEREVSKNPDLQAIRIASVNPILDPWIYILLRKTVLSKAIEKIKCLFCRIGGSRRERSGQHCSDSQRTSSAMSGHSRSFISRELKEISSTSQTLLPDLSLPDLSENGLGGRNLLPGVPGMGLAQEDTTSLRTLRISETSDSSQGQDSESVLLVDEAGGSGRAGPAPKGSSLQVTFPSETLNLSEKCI
Experimental: as §1, §2, §3, §4

[3] = molecular target: T3, hEP3A/Gqi5 (Homo sapiens, UniProt P43115); test: FLIPR calcium signal, hEP3A/Gqi5; type: cell-based; details: HEK-293(EBNA) cells, read-out: Functional EC50 (nM) HEP3A
T3 construct: expressed in transfected cells
T3 sequence (P43115 1-390): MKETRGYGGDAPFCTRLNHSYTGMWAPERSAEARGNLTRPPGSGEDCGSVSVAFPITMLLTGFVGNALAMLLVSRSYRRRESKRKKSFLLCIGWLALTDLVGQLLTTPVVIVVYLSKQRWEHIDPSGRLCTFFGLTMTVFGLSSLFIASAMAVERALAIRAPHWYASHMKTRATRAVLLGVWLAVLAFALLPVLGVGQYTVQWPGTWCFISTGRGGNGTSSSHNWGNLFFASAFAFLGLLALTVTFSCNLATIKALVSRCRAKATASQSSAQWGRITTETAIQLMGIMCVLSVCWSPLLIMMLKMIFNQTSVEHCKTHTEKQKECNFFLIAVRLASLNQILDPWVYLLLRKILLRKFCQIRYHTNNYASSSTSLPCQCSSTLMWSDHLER
Experimental: as §1, §2, §3, §4

[4] = molecular target: T4, HEP4 (Homo sapiens, UniProt P35408); test: Radioligand binding, EP4 receptor; details: competition vs [3H]PGE2 5 nM, HEK-293 cell membranes
T4 construct: expressed in transfected cells; membrane fraction
T4 sequence (P35408 whole entry): as the sequence (P35408 whole entry) above
Experimental: (§5) HEK-293 cells stably expressing the human or feline FP receptor, or EP1, EP2, or EP4 receptors were washed with TME buffer, scraped from the bottom of the flasks, and homogenized for 30 sec using a Brinkman PT 10/35 polytron. TME buffer was added to achieve a final 40 ml volume in the centrifuge tubes (the composition of TME is 100 mM TRIS base, 20 mM MgCl2, […]; 10N HCl is added to achieve a pH of 7.4).
(§6) The cell homogenate was centrifuged at 19000 r.p.m. for 20 min at 4° C. using a Beckman Ti-60 rotor. The resultant pellet was resuspended in TME buffer to give a final 1 mg/ml protein concentration, as determined by Biorad assay. Radioligand binding competition assays vs. [^3H-]17-phenyl PGF2α (5 nM) were performed in a 100 μl volume for 60 min. Binding reactions were started by adding plasma membrane fraction. The reaction was terminated by the addition of 4 ml ice-cold TRIS-HCl buffer and rapid filtration through glass fiber GF/B filters using a Brandel cell harvester. The filters were washed 3 times with ice-cold buffer and oven dried for one hour. Non-specific binding was determined with 10 uM unlabeled 17-phenyl PGF2α.
[^3H-] PGE2 (5 nM; specific activity 180 Ci mmol) was used as the radioligand for EP receptors. Binding studies employing EP1, EP2, EP3, EP4 were performed in duplicate in at least three separate experiments. A 200 μl assay volume was used. Incubations were for 60 min at 25° C. and were terminated by the addition of 4 ml of ice-cold 50 mM TRIS-HCl, followed by rapid filtration through Whatman GF/B filters and three additional 4 ml washes in a cell harvester (Brandel). Non-specific binding determined with 10^−5M of unlabeled PGE2.

[5] = molecular target: T5, HEP2 (Homo sapiens, UniProt P43116); test: Radioligand binding, EP2 receptor; details: competition vs [3H]PGE2 5 nM, HEK-293 cell membranes
T5 construct: expressed in transfected cells; membrane fraction
T5 sequence (P43116 whole entry): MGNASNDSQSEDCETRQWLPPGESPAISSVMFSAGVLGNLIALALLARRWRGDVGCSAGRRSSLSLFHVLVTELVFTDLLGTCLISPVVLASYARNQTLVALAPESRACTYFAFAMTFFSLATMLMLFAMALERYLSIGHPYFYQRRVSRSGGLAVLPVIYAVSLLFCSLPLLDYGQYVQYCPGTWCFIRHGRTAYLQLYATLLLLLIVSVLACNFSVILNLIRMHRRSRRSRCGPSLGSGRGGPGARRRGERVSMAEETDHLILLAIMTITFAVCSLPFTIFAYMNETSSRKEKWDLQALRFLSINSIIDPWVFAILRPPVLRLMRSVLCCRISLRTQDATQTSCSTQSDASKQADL
Experimental: as §5, §6
(§7) [^3H-] PGE2 (5 nM; specific activity 180 Ci mmol) was used as the radioligand for EP receptors. […] Non-specific binding determined with 10^−5M of unlabeled PGE2.

[6] = molecular target: T6, hTP (Homo sapiens, UniProt P21731); test: FLIPR calcium signal, hTP; type: cell-based; details: HEK-293(EBNA) cells, read-out: Functional EC50 (nM) HTP
T6 construct: expressed in transfected cells
T6 sequence (P21731 1-343): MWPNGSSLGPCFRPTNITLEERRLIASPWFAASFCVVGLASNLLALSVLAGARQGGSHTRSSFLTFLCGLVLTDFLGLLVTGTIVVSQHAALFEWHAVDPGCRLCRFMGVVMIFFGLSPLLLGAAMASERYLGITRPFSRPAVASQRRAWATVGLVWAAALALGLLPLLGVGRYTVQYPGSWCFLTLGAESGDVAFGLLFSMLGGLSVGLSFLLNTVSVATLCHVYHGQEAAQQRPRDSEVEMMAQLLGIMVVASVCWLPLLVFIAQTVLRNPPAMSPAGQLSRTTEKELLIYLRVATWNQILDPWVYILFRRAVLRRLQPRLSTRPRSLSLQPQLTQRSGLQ
Experimental: as §1, §2, §3, §4

[7] = molecular target: T7, hEP2/Gqs5 (Homo sapiens, UniProt P43116); test: FLIPR calcium signal, hEP2/Gqs5; type: cell-based; details: HEK-293(EBNA) cells, read-out: Functional EC50 (nM) HEP2
T7 construct: expressed in transfected cells
T7 sequence (P43116 whole entry): as the sequence (P43116 whole entry) above
Experimental: as §1, §2, §3
Compounds were tested in a high-throughput (HTS) or concentration-response (CoRe) format. […]

[8] = molecular target: T8, HEP3D (Homo sapiens, UniProt P43115); test: Radioligand binding, EP3 receptor; details: competition vs [3H]PGE2 5 nM
T8 sequence (P43115 1-374 isoform P43115-4): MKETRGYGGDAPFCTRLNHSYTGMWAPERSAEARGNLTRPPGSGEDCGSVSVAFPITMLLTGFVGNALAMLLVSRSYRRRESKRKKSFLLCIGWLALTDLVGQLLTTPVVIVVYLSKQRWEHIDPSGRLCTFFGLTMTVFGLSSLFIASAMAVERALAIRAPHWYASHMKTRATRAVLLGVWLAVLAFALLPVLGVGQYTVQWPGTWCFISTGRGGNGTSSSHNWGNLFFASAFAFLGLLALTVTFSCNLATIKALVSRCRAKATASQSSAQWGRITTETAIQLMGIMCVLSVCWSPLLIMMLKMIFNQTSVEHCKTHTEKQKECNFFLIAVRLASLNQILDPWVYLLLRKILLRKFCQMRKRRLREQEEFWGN
Experimental: as §5, §6, §7

| Structure (SMILES) | EC50 [2] [nM] | IC50 [4] [nM] | other results |
| --- | --- | --- | --- |
| C[C@@H]1CC(=O)[C@H](C/C=C\CCCC(=O)O)[C@H]1/C=C/C(O)CCc1sc2ccccc2c1Cl (some centres unmarked) | 153 | 1800 | EC50 [1]: > 10000 nM; EC50 [3]: > 10000 nM |
| COC(=O)CCC/C=C\C[C@H]1C(=O)C[C@@H](C)[C@@H]1/C=C/C(O)CCc1sc2ccccc2c1Cl (some centres unmarked) | > 10000 | > 10000 | – |
| COC(=O)CCC/C=C\C[C@H]1C(=O)C[C@@H](C(C)C)[C@@H]1/C=C/C(O)CCc1sc2ccccc2c1Cl (some centres unmarked) | – | > 10000 | – |
| CC(C)[C@@H]1CC(=O)[C@H](C/C=C\CCCC(=O)O)[C@H]1/C=C/C(O)CCc1sc2ccccc2c1Cl (some centres unmarked) | > 10000 | > 10000 | – |
| CC[C@@H]1CC(=O)[C@H](C/C=C\CCCC(=O)O)[C@H]1/C=C/C(O)CCc1sc2ccccc2c1Cl (some centres unmarked) | 708 | 2100 | – |
| C=C[C@@H]1CC(=O)[C@H](C/C=C\CCCC(=O)O)[C@H]1/C=C/C(O)CCc1sc2ccccc2c1Cl (some centres unmarked) | 156 | 650 | IC50 [5]: > 10000 nM |
| C=C[C@@H]1CC(=O)[C@H](C/C=C\CCCC(=O)OC)[C@H]1/C=C/C(O)CCc1sc2ccccc2c1Cl (some centres unmarked) | 1700 | > 10000 | – |
| CC[C@@H]1CC(=O)[C@H](C/C=C\CCCC(=O)OC)[C@H]1/C=C/C(O)CCc1sc2ccccc2c1Cl (some centres unmarked) | – | > 10000 | – |
| O=C(O)CCC/C=C\C[C@H]1C(=O)C[C@@H](CO)[C@@H]1/C=C/C(O)Cc1cc2ccccc2s1 (single isomer, unassigned) [drawing 36] | > 10000 | – | EC50 [1]: > 10000 nM; EC50 [6]: > 10000 nM; EC50 [7]: > 10000 nM; EC50 [3]: > 10000 nM |
| O=C(O)CCC/C=C\C[C@H]1C(=O)C[C@@H](CO)[C@@H]1/C=C/C(O)Cc1cc2ccccc2s1 (single isomer, unassigned) [drawing 37] | 1770 | – | EC50 [1]: 9 nM; EC50 [7]: > 10000 nM; EC50 [3]: 99 nM |
| COC(=O)CCC/C=C\C[C@H]1C(=O)C[C@@H](CO)[C@@H]1/C=C/C(O)CCc1sc2ccccc2c1Cl (some centres unmarked) [drawing 30] | > 10000 | – | – |
| COC(=O)CCC/C=C\C[C@H]1C(=O)C[C@@H](CO)[C@@H]1/C=C/C(O)CCc1sc2ccccc2c1Cl (some centres unmarked) [drawing 31] | > 10000 | – | – |
| O=C(O)CCC/C=C\C[C@H]1C(=O)C[C@@H](CO)[C@@H]1/C=C/C(O)CCc1sc2ccccc2c1Cl (some centres unmarked) [drawing 32] | 1240 | – | – |
| O=C(O)CCC/C=C\C[C@H]1C(=O)C[C@@H](CO)[C@@H]1/C=C/C(O)CCc1sc2ccccc2c1Cl (some centres unmarked) [drawing 33] | 1790 | – | – |
| COC(=O)CCC/C=C\C[C@H]1C(=O)C[C@@H](CO)[C@@H]1/C=C/C(O)Cc1cc2ccccc2s1 (some centres unmarked) [drawing 34] | > 10000 | – | EC50 [1]: > 10000 nM; EC50 [6]: > 10000 nM |
| COC(=O)CCC/C=C\C[C@H]1C(=O)C[C@@H](CO)[C@@H]1/C=C/C(O)Cc1cc2ccccc2s1 (some centres unmarked) [drawing 35] | > 10000 | – | EC50 [1]: > 10000 nM; EC50 [6]: > 10000 nM; EC50 [7]: > 10000 nM; EC50 [3]: 9000 nM |
| COC(=O)CCC/C=C\C[C@H]1C(=O)CC[C@@H]1/C=C/C(O)CCc1sc2ccccc2c1Cl (some centres unmarked) [drawing 38] | 515 | – | – |
| COC(=O)CCC/C=C\C[C@H]1C(=O)CC[C@@H]1/C=C/C(O)CCc1sc2ccccc2c1Cl (some centres unmarked) [drawing 39] | 862 | – | EC50 [6]: > 10000 nM |
| O=C(O)CCC/C=C\C[C@H]1C(=O)CC[C@@H]1/C=C/C(O)CCc1sc2ccccc2c1Cl (some centres unmarked) [drawing 40] | 11 | 150 | IC50 [5]: > 10000 nM; IC50 [8]: 6000 nM |
| O=C(O)CCC/C=C\C[C@H]1C(=O)CC[C@@H]1/C=C/C(O)CCc1sc2ccccc2c1Cl (some centres unmarked) [drawing 41] | 25 | 110 | IC50 [8]: 3700 nM; EC50 [6]: > 10000 nM; EC50 [3]: > 10000 nM |
